Assay [1] concerns pAKT(Ser473) in MDA-MB-468 cells. Description: pAKT(Ser473) assay in MDA-MB-468 cells. The conditions noted are these: Homo sapiens, 0.5 h, compound treatment 30 minutes, MSD ELISA phospho AKT(Ser473), given as ranges, read-out: Cell Activity—pAKT IC50 in MDA-MB-468. Type of assay: cell-based. The protocol: pAKT(Ser473) Assay in MDA-MB-468 Cells
MDA-MB-468 cells were plated in 384-well flat clear bottom tissue culture plates (Corning #3701) at a density of 5000 cells per 0.057 cm2 in 48 ul of RPMI 1640 media supplemented with 10% fetal bovine serum (FBS). Cells were seeded with a Wellmate liquid handler (Matrix). Columns 1 through 23 were plated with cells and column 24 contained media alone. Cells were incubated at 37° C. with 5% CO2 for approximately 16-20 hours. Duplicate compound plates were prepared in 384-well polypropylene V-Bottom plates (Greiner #781280).
Compound titrations were made across the columns (A1-A20). 20 ul of compound was added to the first column and diluted into a 20 point curve with dimethylsulfoxide (DMSO, Thermo #TS2064) using a 2-fold dilution factor with a liquid handling robot (Hamilton). Columns 22 through 24 contained DMSO alone. Titrations were diluted 682-fold for compound treatment with 4 ul of compound added to 105 ul of RPMI media. Two ul of the diluted compound was added to the cell plates containing 48 ul of media using a multimek robot (Beckman Coulter). Final DMSO concentrations were 0.15%. Cells were treated with compound for 30 minutes at 37° C. with 5% CO2.
Following incubation, media was aspirated from dosed cell plates using an ELx405 plate washer (Bio-Tek) and 25 ul of 4° C. Meso Scale Discovery (MSD) lysis buffer with the addition of protease and phosphatase inhibitors (supplied in MSD kit #N31CB-1) was added to each well using a multidrop combi (Thermo). Precoated 4-spot per well MSD ELISA plates coated with total and phospho AKT(Ser473) antibody and BSA (supplied in kit) were blocked for 1 hour at room temperature with 35 ul per well of 1× MSD wash buffer+3% BSA (supplied in kit).
Blocked plates were washed 4 times with 100 ul per well of 1× Tris wash buffer (supplied in MSD kit) using an Elx405 plate washer (Bio-Tek). To each well, 20 ul of cell lysate was added using a multimek robot (Beckman Coulter) and the plate incubated at 4° C. overnight (˜12-24 hours). Following incubation, the ELISA plates were washed 4 times (100 ul/well) with 1× Tris wash buffer. Twenty microliters per well of 1× detection antibody (supplied in MSD kit) was added using a multidrop combi (Thermo), followed by a 2 hour incubation at room temperature. Detection antibody was aspirated and the plates washed 4 times (100 ul/well) with 1× Tris wash buffer. Read Buffer (supplied in MSD kit) was added at 1× (35 ul/well) at room temperature using a multidrop (Thermo). Relative luminescence units (RLU) were determined using a SECTOR™ Imager 6000 with MSD Workbench Software.
Concentration Response Curves for pAKT(Ser473):
For analysis of the pAKT(Ser473) concentration response curves, the data was normalized using Phospho AKT values divided by the sum of corresponding Total AKT and Phospho AKT values. The normalized values are plotted as the percent of the DMSO-treated control values on the corresponding plate. To determine IC50 values, the data is fit to a 4 parameter nonlinear sigmoidal dose response (variable slope) using GraphPad Prism version 4 for Windows, (GraphPad Software, San Diego Calif. USA). Criteria for curve fitting and IC50 determination include that the IC50 values from duplicate runs must be within 2 to 3-fold of each other, the Y min must be less than or equal to 30% of the DMSO-treated control and the Y max must range between 80-120%. Any data point equal to or greater than 40% of the curve was not utilized.

The target in the next assay is T1, PI3K-beta (Homo sapiens, UniProt P42338).
T1 construct: made in house
T1 sequence (P42338 whole entry): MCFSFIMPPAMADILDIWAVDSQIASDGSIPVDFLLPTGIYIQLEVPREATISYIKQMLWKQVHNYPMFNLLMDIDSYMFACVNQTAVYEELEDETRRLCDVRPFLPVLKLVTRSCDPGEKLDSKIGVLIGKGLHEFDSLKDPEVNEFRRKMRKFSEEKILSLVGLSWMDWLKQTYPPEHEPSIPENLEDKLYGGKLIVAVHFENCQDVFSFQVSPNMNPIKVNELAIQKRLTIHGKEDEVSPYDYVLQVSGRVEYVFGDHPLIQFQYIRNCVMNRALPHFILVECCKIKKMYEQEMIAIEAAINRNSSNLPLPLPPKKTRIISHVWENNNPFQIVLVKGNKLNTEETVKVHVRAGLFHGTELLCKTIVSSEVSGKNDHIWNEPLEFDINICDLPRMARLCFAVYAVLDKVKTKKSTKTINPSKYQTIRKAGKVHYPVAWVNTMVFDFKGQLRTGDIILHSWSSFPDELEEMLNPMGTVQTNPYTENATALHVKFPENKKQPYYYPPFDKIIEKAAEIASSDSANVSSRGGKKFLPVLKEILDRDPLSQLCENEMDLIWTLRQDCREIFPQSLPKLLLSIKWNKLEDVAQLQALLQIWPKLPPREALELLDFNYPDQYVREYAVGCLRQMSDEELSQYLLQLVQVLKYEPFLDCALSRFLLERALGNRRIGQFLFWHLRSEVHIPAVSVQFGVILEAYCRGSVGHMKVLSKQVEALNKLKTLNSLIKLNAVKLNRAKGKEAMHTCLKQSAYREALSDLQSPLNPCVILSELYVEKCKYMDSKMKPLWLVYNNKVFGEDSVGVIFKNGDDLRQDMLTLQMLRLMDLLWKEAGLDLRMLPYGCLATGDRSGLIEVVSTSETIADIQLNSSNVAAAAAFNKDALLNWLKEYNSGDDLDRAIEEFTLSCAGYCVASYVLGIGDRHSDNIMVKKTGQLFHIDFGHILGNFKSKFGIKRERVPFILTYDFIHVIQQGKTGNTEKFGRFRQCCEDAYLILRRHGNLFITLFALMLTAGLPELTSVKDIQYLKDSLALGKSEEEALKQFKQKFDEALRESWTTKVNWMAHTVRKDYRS
T1 sequence (P27986 whole entry partner): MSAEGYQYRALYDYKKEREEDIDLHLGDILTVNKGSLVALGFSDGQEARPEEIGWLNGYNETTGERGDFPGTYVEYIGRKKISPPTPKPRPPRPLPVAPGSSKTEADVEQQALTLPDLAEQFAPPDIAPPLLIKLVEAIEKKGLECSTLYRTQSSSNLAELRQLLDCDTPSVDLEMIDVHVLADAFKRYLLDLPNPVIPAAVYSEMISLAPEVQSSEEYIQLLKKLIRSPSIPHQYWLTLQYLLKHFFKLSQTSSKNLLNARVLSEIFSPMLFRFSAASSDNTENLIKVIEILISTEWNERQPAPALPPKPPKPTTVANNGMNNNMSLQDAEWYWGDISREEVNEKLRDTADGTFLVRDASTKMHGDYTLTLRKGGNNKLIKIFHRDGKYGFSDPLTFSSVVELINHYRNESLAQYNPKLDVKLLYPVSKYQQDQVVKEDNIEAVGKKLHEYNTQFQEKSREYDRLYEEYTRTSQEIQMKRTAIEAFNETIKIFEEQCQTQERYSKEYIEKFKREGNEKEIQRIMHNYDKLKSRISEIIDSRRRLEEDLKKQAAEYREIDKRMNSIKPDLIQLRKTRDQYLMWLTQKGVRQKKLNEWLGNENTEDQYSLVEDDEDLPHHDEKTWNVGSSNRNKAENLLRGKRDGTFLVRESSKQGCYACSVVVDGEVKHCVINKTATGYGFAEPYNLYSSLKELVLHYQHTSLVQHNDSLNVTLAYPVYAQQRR
Briefly: HTRF in vitro profiling assay for PI3K inhibition (beta isoform). The conditions noted are these: PI3K-beta enzyme pIC50 range, 200 pM enzyme, 100 uM ATP, 10 uM PIP2, 150 mM NaCl, corrected pIC50, read-out: PI3K-b Enz Activity. The format is biochemical. From the text: HTRF In Vitro Profiling Assays for PI3K Inhibition
The PI3-Kinase profiling assays were developed to measure the compound-dependent inhibition of the alpha, beta, delta, and gamma isoforms of PI3K in an in vitro catalytic assay. This assay was developed and optimized from a kit produced by Upstate (Millipore catalog #33-017). Briefly, this procedure utilizes a pre-formed HTRF (Homogeneous Time-Resolved Fluorescence energy transfer) complex between four binding partners: 1) biotinylated PIP3, 2) GST tagged pleckstrin homology (PH) domain, 3) Europium labeled anti-GST monoclonal antibody, and 4) Streptavidin-Allophycocyanin (APC). The native PIP3 produced by PI 3-Kinase activity displaces biotin-PIP3 from the PH domain, resulting in the dissociation of the HTRF complex and a decrease in the fluorescence signal. The format of this assay is the same for all 4 isoforms of PI3K; the differences lie in the concentration of enzyme used to achieve the most robust signal. The alpha and delta assays are run at 400 pM enzyme; the beta assay is at 200 pM enzyme and the gamma assay is run at 1 nM enzyme. In addition, the alpha, beta and delta assays are run with 150 mM NaCl while the gamma assay is run in the absence of NaCl. The ATP concentration is 100 uM in the alpha, beta, and delta assays and 15 uM ATP in the gamma assay. All reactions are run at 10 uM PIP2
Compounds are serially diluted (3-fold in 100% DMSO) across a 384-well polypropylene mother plate from column 1 to column 12 and column 13 to column 24, to yield 11 concentrations for each test compound. Columns 6 and 18 contain only DMSO. Once titrations are made, […] is transferred to a 384-well low-volume assay plate (Greiner 784076). This assay plate contains three pharmacological controls (known PI3K inhibitors) and 3 assay controls: (1) Enzyme without inhibitor; (2) Buffer minus enzyme, and (3) Buffer minus enzyme plus native PIP3. DMSO is stamped into all wells of columns 6 and 18. PIP3 is added at 40 μM in 1× Reaction buffer (1 μL of 200 μM PIP3) to alternating rows of column 18 (wells 18 B, D, F, H, J, L, N, P). The no-enzyme control reactions are run in wells 18 A, C, E, G, I, K, M, O (0.1 μL of 100% DMSO).
The PI3-Kinase profiling assay was optimized using the HTRF kit provided by Upstate (Millipore). The assay kit contains seven reagents: 1) 4× Reaction Buffer; 2) native PIP2 (substrate); 3) Stop A (EDTA); 4) Stop B (Biotin-PIP3); 5) Detection Mix A (Streptavidin-APC); 6) Detection Mix B (Eu-labeled Anti-GST plus GST-tagged PH-domain); 7) Detection Mix C (KF). In addition, the following items were obtained or purchased: PI3Kinase (prepared by GSK BR&AD), dithiothreitol (Sigma, D-5545), Adenosine-5′-triphosphate (ATP, Teknova cat. # A0220), native PIP3 (1,2-dioctanoyl-sn-glycero-3-[phosphoinositil-3,4,5-triphosphate]tetraammonium salt (Avanti polar lipids, 850186P), DMSO (Sigma, 472301).
PI3Kinase Reaction Buffer is prepared by diluting the stock 1:4 with de-ionized water. Freshly prepared DTT is added at a final concentration of 5 mM on the day of use. Enzyme addition and compound pre-incubation are initiated by the addition of 2.5 μL of PI3K (at twice its final concentration) in 1× reaction buffer to all wells using a Multidrop Combi. Plates are incubated at room temperature for 15 minutes. Reactions are initiated by addition of 2.5 μL of 2× substrate solution (PIP2 and ATP in 1× reaction buffer) using a Multidrop Combi. Plates are incubated at room temperature for one hour. Reactions are quenched by the addition of 2.5 μL of stop solution (Stop A and Stop B pre-mixed at a ratio of 5:1, respectively) to all wells using the Multidrop Combi. […]
On the technique in general: In TR-FRET formats the signal depends on donor and acceptor labels being close together.

Structures can show the parent of a compound that is named as a salt.

For `Cc1c(Cc2cnn3c(O)cc(N4CCOCC4)nc23)cccc1C(F)(F)F` [Example 11, 3-(2-methyl-3-(trifluoromethyl)benzyl)-5-morpholinopyrazolo[1,5-a]pyrimidin-7-ol], the IC50 in assay [1] lay within 1000 to 5000 nM; on PI3K-beta, 1.26 to 10 nM.
As for `Cc1c(Cc2cnn3c(O)cc(-c4ccncc4)nc23)cccc1C(F)(F)F` [Example 13, 3-(2-methyl-3-(trifluoromethyl)benzyl)-5-(pyridin-4-yl)pyrazolo[1,5-a]pyrimidin-7-ol], the results for the IC50 (in assay [1]; at PI3K-beta) were 1000 to 5000 nM and 1.26 to 10 nM, respectively.
With `Cc1cccc(Cc2cnn3c(O)cc(-c4ccncc4)nc23)c1C` [Example 14, 3-(2,3-dimethylbenzyl)-5-(pyridin-4-yl)pyrazolo[1,5-a]pyrimidin-7-ol], the IC50 in assay [1] is 1000 to 5000 nM; on PI3K-beta, 1.26 to 10 nM.
In the case of `CCc1nn2c(O)cc(C3CCOCC3)nc2c1Cc1cccc(Cl)c1Cl` [Example 15, 3-(2,3-dichlorobenzyl)-2-ethyl-5-(tetrahydro-2H-pyran-4-yl)pyrazolo[1,5-a]pyrimidin-7-ol], the IC50 was greater than 20000 nM in assay [1] and 1.26 to 10 nM on PI3K-beta.
As for `Cc1nn2c(NC(N)=O)cc(N3CCOCC3)nc2c1Cc1cccc(C(F)(F)F)c1C` [Example 16, 1-(2-methyl-3-(2-methyl-3-(trifluoromethyl)benzyl)-5-morpholinopyrazolo[1,5-a]pyrimidin-7-yl)urea], the IC50 in assay [1] was greater than 20000 nM; at PI3K-beta, 12.6 to 100 nM.
`Cc1nn2c(N)cc(N3CCOCC3)nc2c1Cc1cccc(C(F)(F)F)c1C` [Example 17, 2-methyl-3-(2-methyl-3-(trifluoromethyl)benzyl)-5-morpholinopyrazolo[1,5-a]pyrimidin-7-amine]: the IC50 is less than 1000 nM in assay [1] and 12.6 to 100 nM on PI3K-beta.
As for `Cc1c(Cc2c(O)nn3c(O)cc(C4CCOCC4)nc23)cccc1C(F)(F)F` [Example 19, 3-(2-methyl-3-(trifluoromethyl)benzyl)-5-(tetrahydro-2H-pyran-4-yl)pyrazolo[1,5-a]pyrimidine-2,7-diol], the IC50 is greater than 20000 nM in assay [1] and 12.6 to 100 nM on PI3K-beta.
As for `Nc1cc(N2CCOCC2)nc2c(Cc3cccc(Cl)c3Cl)cnn12` [Example 20, 3-(2,3-dichlorobenzyl)-5-morpholinopyrazolo[1,5-a]pyrimidin-7-amine], the IC50 in assay [1] is less than 1000 nM; at PI3K-beta it was 12.6 to 100 nM.
For `Oc1nn2c(O)cc(-c3ccncc3)nc2c1Cc1ccccc1Cl` [Example 21, 3-(2-chlorobenzyl)-5-(pyridin-4-yl)pyrazolo[1,5-a]pyrimidine-2,7-diol] the same measures were greater than 20000 nM and 126 to 1260 nM.
Turning to `Cc1nn2c(O)cc(N3CCOCC3)nc2c1Cc1cccc2ccccc12` [Example 22, 2-methyl-5-morpholino-3-(naphthalen-1-ylmethyl)pyrazolo[1,5-a]pyrimidin-7-ol], the IC50 in assay [1] fell in the range of 1000 to 5000 nM; at PI3K-beta, 0.126 to 1 nM.
The matching figures for `Nc1nn2c(O)cc(N3CCOCC3)nc2c1Cc1cccc2ccccc12` [Example 23, 2-amino-5-morpholino-3-(naphthalen-1-ylmethyl)pyrazolo[1,5-a]pyrimidin-7-ol]: less than 1000 nM and 0.126 to 1 nM.
Regarding `Cc1c(Cc2c(N)nn3c(O)cc(N4CCOCC4)nc23)cccc1C(F)(F)F` [Example 24, 2-amino-3-(2-methyl-3-(trifluoromethyl)benzyl)-5-morpholinopyrazolo[1,5-a]pyrimidin-7-ol], the IC50 in assay [1] is less than 1000 nM; on PI3K-beta, 1.26 to 10 nM.
On to `Cc1c(Cc2c(N)nn3c(O)cc(C4CCOCC4)nc23)cccc1C(F)(F)F` [Example 25, 2-amino-3-(2-methyl-3-(trifluoromethyl)benzyl)-5-(tetrahydro-2H-pyran-4-yl)pyrazolo[1,5-a]pyrimidin-7-ol], for which the IC50 in assay [1] is less than 1000 nM; at PI3K-beta it was 1.26 to 10 nM.
With `Nc1nn2c(O)cc(C3CCOCC3)nc2c1Cc1cccc(Cl)c1Cl` [Example 26, 2-amino-3-(2,3-dichlorobenzyl)-5-(tetrahydro-2H-pyran-4-yl)pyrazolo[1,5-a]pyrimidin-7-ol hydrochloride], the IC50 lay within 1000 to 5000 nM in assay [1] and 1.26 to 10 nM at PI3K-beta.
For `Cc1nn2c(N)cc(N3CCOCC3)nc2c1Cc1cccc2ccccc12` [Example 27, 2-methyl-5-morpholino-3-(naphthalen-1-ylmethyl)pyrazolo[1,5-a]pyrimidin-7-amine], the IC50 was less than 1000 nM in assay [1] and 12.6 to 100 nM at PI3K-beta.
With `Cc1ccccc1Cc1c(C)nn2c(O)cc(-c3ccncc3)nc12` [Example 29, 2-methyl-3-(2-methylbenzyl)-5-(pyridin-4-yl)pyrazolo[1,5-a]pyrimidin-7-ol], the IC50 in assay [1] lay within 1000 to 5000 nM; at PI3K-beta, 1.26 to 10 nM.
Take `Cc1nn2c(O)cc(-c3ccncc3)nc2c1Cc1cccc(Cl)c1Cl` [Example 30, 3-(2,3-dichlorobenzyl)-2-methyl-5-(pyridin-4-yl)pyrazolo[1,5-a]pyrimidin-7-ol]: the IC50 fell in the range of 6000 to 10000 nM in assay [1] and 0.126 to 1 nM on PI3K-beta.

Values taken from patent US9096605B2, “Pyrazolopyrimidine derivatives as PI3 kinase inhibitors” (GlaxoSmithKline LLC, priority 2011, dated 2015).
